Experimental data: the supplement of paper PMC10307832

Tests used:
Test in all cases: relative viability (nuclei count vs DMSO), 5 days (fraction); higher = more cells survive
BI-D1870 + Lapatinib = compound: CC(C)CCN1c2nc(Nc3cc(F)c(O)c(F)c3)ncc2N(C)C(=O)C1C [BI-D1870] + CS(=O)(=O)CCNCc1ccc(-c2ccc3ncnc(Nc4ccc(OCc5cccc(F)c5)c(Cl)c4)c3c2)o1 [Lapatinib] (partner 2 µM)
Procedure, shortened: (§1)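 Dosing by pin tool came one day after lung cancer cell lines were seeded in 1536-well plates, using either one drug or a fixed anchor-drug dose plus five library-drug doses (not always all listed) in √10 steps. After 5 days, nuclei were counted on 4× images. Relative viability is treated-well nuclei count divided by vehicle-well nuclei count, and values are medians of duplicate plates.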

Zebularine + Alpelisib = compound: O=c1ncccn1[C@@H]1O[C@H](CO)[C@@H](O)[C@H]1O [Zebularine] + Cc1nc(NC(=O)N2CCC[C@H]2C(N)=O)sc1-c1ccnc(C(C)(C)C(F)(F)F)c1 [Alpelisib] (partner 2 µM)
Procedure, shortened: as §1

BI-D1870 + Pictilisib = compound: CC(C)CCN1c2nc(Nc3cc(F)c(O)c(F)c3)ncc2N(C)C(=O)C1C [BI-D1870] + CS(=O)(=O)N1CCN(Cc2cc3nc(-c4cccc5[nH]ncc45)nc(N4CCOCC4)c3s2)CC1 [Pictilisib] (partner 1 µM)
Procedure, shortened: as §1

Zebularine + Lapatinib = compound: O=c1ncccn1[C@@H]1O[C@H](CO)[C@@H](O)[C@H]1O [Zebularine] + CS(=O)(=O)CCNCc1ccc(-c2ccc3ncnc(Nc4ccc(OCc5cccc(F)c5)c(Cl)c4)c3c2)o1 [Lapatinib] (partner 2 µM)
Procedure, shortened: as §1

Row | Cell Line | relative viability (BI-D1870 + Lapatinib; first compound 0.04 µM) | relative viability (BI-D1870 + Lapatinib; first compound 0.1265 µM) | relative viability (BI-D1870 + Lapatinib; first compound 0.4 µM) | relative viability (BI-D1870 + Lapatinib; first compound 1.265 µM) | relative viability (BI-D1870 + Lapatinib; first compound 4 µM) | relative viability (Zebularine + Alpelisib; first compound 1 µM) | relative viability (Zebularine + Alpelisib; first compound 3.162 µM) | relative viability (Zebularine + Alpelisib; first compound 10 µM) | relative viability (Zebularine + Alpelisib; first compound 31.62 µM) | relative viability (Zebularine + Alpelisib; first compound 100 µM) | relative viability (BI-D1870 + Pictilisib; first compound 0.04 µM) | relative viability (BI-D1870 + Pictilisib; first compound 0.1265 µM) | relative viability (BI-D1870 + Pictilisib; first compound 0.4 µM) | relative viability (BI-D1870 + Pictilisib; first compound 1.265 µM) | relative viability (BI-D1870 + Pictilisib; first compound 4 µM) | relative viability (Zebularine + Lapatinib; first compound 1 µM) | relative viability (Zebularine + Lapatinib; first compound 3.162 µM) | relative viability (Zebularine + Lapatinib; first compound 10 µM) | relative viability (Zebularine + Lapatinib; first compound 31.62 µM) | relative viability (Zebularine + Lapatinib; first compound 100 µM)
1 | LU99A | 1.11 | 0.942 | 0.928 | 0.941 | 0.939 | 0.58 | 0.506 | 0.451 | 0.292 | 0.152 | 0.368 | 0.253 | 0.319 | 0.305 | 0.358 | 1.14 | 0.838 | 0.615 | 0.421 | 0.176
2 | NCI-H1355 | 0.955 | 0.959 | 0.907 | 1.21 | 0.809 | 0.856 | 0.798 | 0.728 | 0.635 | 0.385 | 0.433 | 0.365 | 0.398 | 0.504 | 0.323 | 1.31 | 0.851 | 0.854 | 0.681 | 0.357
3 | HCC-78 | 0.827 | 0.597 | 0.715 | 1.13 | 0.856 | 0.358 | 0.155 | 0.104 | 0.326 | 0.292 | 0.213 | 0.185 | 0.249 | 0.21 | 0.236 | 1.1 | 0.43 | 0.871 | 0.729 | 0.181
4 | NCI-H1563 | 1.08 | 0.898 | 0.817 | 0.9 | 0.917 | 0.932 | 0.888 | 0.927 | 0.955 | 0.909 | 0.674 | 0.617 | 0.604 | 0.693 | 0.681 | 1 | 0.782 | 0.907 | 1.13 | 0.946
5 | HCC-15 | 0.94 | 0.832 | 0.774 | 0.795 | 0.592 | 1.01 | 0.887 | 0.596 | 0.654 | 0.248 | 0.792 | 0.661 | 0.674 | 0.79 | 0.509 | 0.941 | 0.822 | 0.74 | 0.825 | 0.401
6 | EKVX | 0.236 | 0.18 | 0.195 | 0.223 | 0.2 | 0.958 | 0.867 | – | 0.963 | 0.802 | 0.488 | 0.388 | 0.412 | 0.453 | 0.403 | 0.218 | 0.182 | – | 0.211 | 0.184
7 | NCI-H2087 | 1.14 | 1.09 | 1.34 | 1.36 | 0.877 | 1.31 | 1.01 | 0.684 | 0.778 | 0.309 | 0.963 | 0.867 | 0.86 | 1.03 | 0.665 | 1.16 | 0.662 | 0.615 | 0.924 | 0.275
8 | LK-2 | 1.01 | 0.888 | 0.985 | 1.04 | 0.977 | 1.15 | 1.29 | 0.541 | 0.665 | 0.407 | 0.557 | 0.484 | 0.535 | 0.619 | 0.533 | 0.947 | 1.04 | 0.584 | 0.539 | 0.283
